pIC50: −log10 of the molar value.

Broadly, the pIC50 is −log10 of the IC50, conventionally taken in molar units. Read a high pIC50 as a small IC50.

In this experiment the target is Human immunodeficiency virus type 1 integrase (Human immunodeficiency virus 1, UniProt Q7ZJM1). Briefly: Inhibitory activity against HIV-1 Integrase (HIV-1-IN).
Sequence of Human immunodeficiency virus type 1 integrase (Q7ZJM1 whole entry): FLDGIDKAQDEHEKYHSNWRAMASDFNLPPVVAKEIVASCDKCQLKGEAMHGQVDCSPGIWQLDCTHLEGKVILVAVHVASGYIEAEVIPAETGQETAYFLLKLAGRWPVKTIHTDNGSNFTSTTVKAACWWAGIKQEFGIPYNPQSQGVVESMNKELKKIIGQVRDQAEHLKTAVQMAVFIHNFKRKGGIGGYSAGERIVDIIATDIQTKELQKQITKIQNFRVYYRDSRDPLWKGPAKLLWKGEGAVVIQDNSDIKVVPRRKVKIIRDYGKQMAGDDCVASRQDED
Take `O=C(/C=C/c1ccc(O)c(O)c1)CCc1ccccc1`: the pIC50 is 4.00.

Consider `COc1ccc(/C=C/C(=O)/C=C(O)/C=C/c2ccc(OC)c(OC)c2)cc1OC`, for which the negative-log IC50 (pIC50) is 4.00.

Regarding `O=C(/C=C/c1ccc(O)cc1)/C=C/c1ccc(O)cc1`, the pIC50 was 4.00.

Regarding `O=C(/C=C(O)/C=C/c1ccccc1)/C=C/c1ccccc1`, the pIC50 is 4.00.

Compound `O=C(/C=C/c1cc(O)ccc1O)OCCc1ccccc1` gave a pIC50 of 4.00.

`COc1ccc(/C=C/C(=O)OCCc2ccccc2)cc1OC` showed a negative-log IC50 (pIC50) of 4.00.

`COOC(=O)c1cc2ccc(O)c(O)c2cn1` showed a pIC50 of 4.85.

In turn, `COOC(=O)c1cc2cc(O)c(O)cc2cn1` showed a pIC50 of 4.00.

With `O=C(NCc1ccccc1)c1cc2cc(O)c(O)cc2cn1`, the pIC50 is 4.00.

The compound `O=C(/C=C/c1ccc(F)c(F)c1)OCCc1ccccc1` gave a pIC50 of 4.00.

`COOC(=O)c1ccc2c(O)c(O)ccc2c1`: the pIC50 was 5.10.

In turn, `COc1ccc(/C=C/C(=O)/C=C/c2ccc(OC)c(OC)c2)cc1OC` gave a pIC50 of 4.00. This pIC50 is 1.10 log units lower than that of the compound before.

In the case of `COc1cc(/C=C/C(=O)OCCc2ccccc2)ccc1O`, the pIC50 is 4.00.

`O=C(/C=C/c1ccc(O)cc1)CC(=O)/C=C/c1ccc(O)cc1` [BISDEMETHOXYCURCUMIN]: the negative-log IC50 (pIC50) was 4.00.

The compound `COc1cc(/C=C2\CCC/C(=C\c3ccc(O)c(OC)c3)C2=O)ccc1O` [CYCLOVALONE] showed a pIC50 of 4.00.

`CCOC(=O)/C=C/c1ccc(O)c(O)c1` [ETHYL CAFFEATE] had a negative logarithm of the IC50 (pIC50) of 4.00.

On to `O=C(/C=C/c1ccc(O)cc1)c1ccc(O)cc1O` [ISOLIQUIRITIGENIN], for which the negative-log IC50 (pIC50) is 4.00.

In turn, `COC(=O)/C=C/c1ccc(O)c(O)c1` [METHYLCAFFEATE] showed a pIC50 of 4.00.
